Data: patent publication US6010876A, “Clavanins” (The Regents of the University of California, priority 1996, dated 2000)

Columns and labels:
[1] = system: L. monocytogenes EGD; assay: radial diffusion assay; type: cell-based, Listeria monocytogenes; conditions: for potency relative to Clavanins A and B: L. monocytogenes Strain EGD, radial diffusion (FIG. 5)
Experimental: (§1) In more detail, the filtrates (≈3.5 mg of protein by BCA) were concentrated to 2 ml by vacuum centrifugation in a Speed Vac Concentrator (Savant Instruments, Hicksville, N.Y.). Gel permeation chromatography was performed on a 1.2×65 cm BioGel P-10 gel permeation column with 5% acetic acid. Preparative continuous acid-urea PAGE electrophoresis was performed as described by Harwig, S. S. L. et al., Anal Biochem (1993) 208:382. Active fractions were pooled and purified by RP-HPLC a 4.6×250 mm Vydac C18 column, using various linear gradients of acetonitrile in 0.1% trifluoroacetic acid (TFA) or […],) heptafluorobutyric acid (HFBA). Throughout this multistep procedure, fractions were lyophilized, concentrated and tested for antimicrobial activity against Listeria monocytogenes strain EGD by a radial diffusion technique described in Lehrer, R. I. et al., J Immunol Methods (1991) 137:167. In these assays, the underlay gels contained 9 mM sodium phosphate and 1 mM sodium citrate buffer, 0.30 mg/ml of trypticase soy broth powder (BBL, Cockeysville, Md.) and […] at a final pH of 6.5.
(§2) In addition to Cecropin P1 and Magainin 1, the activity of Clavanin A(K) was also tested. Clavanin A(K) is identical to Clavanin A except that all of the histidine residues are replaced by lysine. […] The data are provided as minimal bacteriocidal concentrations expressed in μg/ml which are the X-intercepts of radial diffusion assays performed at pH 6.5 in an underlay that contained 10 mM buffer ([…]), 1% agarose and 0.3 mg trypticase soy powder/ml.
(§3) The effect of pH on antimicrobial activity against several organisms was tested in a pH range wherein histidine becomes comparably charged to lysine. FIGS. 6-8 show the results for native or synthetic Clavanin A and synthetic Clavanin A(K) using defensin NP-2 as a control, with respect to L. monocytogenes, E. coli, and C. albicans respectively. The radial diffusion assays were conducted as described in Examples 1 and 3 above.

[2] = system: E. coli ML-35p; assay: radial diffusion assay; type: cell-based; conditions: for potency relative to Clavanins A and B: E. coli ML-35P, radial diffusion (FIG. 5)
Experimental: as §1, §2, §3

[3] = system: E. coli BAS 894; assay: radial diffusion assay, minimal bactericidal concentration; type: cell-based; conditions: X-intercept of radial diffusion assay, pH 6.5
Experimental: as §1, §2

[4] = system: E. coli mcr 106; assay: as above; type: cell-based; conditions: X-intercept of radial diffusion assay, pH 6.5
Experimental: as §1, §2

[5] = system: E. faecalis CDC 21 (VR); assay: as above; type: cell-based; conditions: X-intercept of radial diffusion assay, pH 6.5
Experimental: as §1, §2

[6] = system: E. faecium 94.132 (VR); assay: as above; type: cell-based; conditions: X-intercept of radial diffusion assay, pH 6.5
Experimental: as §1, §2

[7] = system: E. faecium; assay: as above; type: cell-based; conditions: E. faecium (strain not given); X-intercept of radial diffusion assay, pH 6.5
Experimental: as §1, §2

[8] = system: K. pneumoniae 2270; assay: as above; type: cell-based; conditions: X-intercept of radial diffusion assay, pH 6.5
Experimental: as §1, §2

[9] = system: MRSA 28841; assay: as above; type: cell-based; conditions: X-intercept of radial diffusion assay, pH 6.5
Experimental: as §1, §2

[10] = system: MRSA 30371; assay: as above; type: cell-based; conditions: X-intercept of radial diffusion assay, pH 6.5
Experimental: as §1, §2

[11] = system: P. aeruginosa MR 2133; assay: as above; type: cell-based; conditions: X-intercept of radial diffusion assay, pH 6.5
Experimental: as §1, §2

[12] = system: P. aeruginosa MR 3007; assay: as above; type: cell-based; conditions: X-intercept of radial diffusion assay, pH 6.5
Experimental: as §1, §2

[13] = system: P. aeruginosa SBI-N; assay: as above; type: cell-based; conditions: X-intercept of radial diffusion assay, pH 6.5
Experimental: as §1, §2

[14] = system: S. aureus 930918-3; assay: as above; type: cell-based; conditions: X-intercept of radial diffusion assay, pH 6.5
Experimental: as §1, §2

[15] = system: S. typhimurium 14028s; assay: as above; type: cell-based; conditions: X-intercept of radial diffusion assay, pH 6.5
Experimental: as §1, §2

[16] = system: S. typhimurium 7953s; assay: as above; type: cell-based; conditions: X-intercept of radial diffusion assay, pH 6.5
Experimental: as §1, §2

AFKLL GRIIH HVGNF VY'GFS HVF* [Clavanin D]
potency relative to Clavanins A and B [1]: 3-5 fold
potency relative to Clavanins A and B [2]: 3-5 fold

VFHLL GKIIH HVGNF VY'GFS HVF* [Clavanin C]
potency relative to Clavanins A and B [1]: 3-5 fold
potency relative to Clavanins A and B [2]: 3-5 fold

Cecropin P1: known antimicrobial peptide used for comparison (SWLSKTAKKLENSAKKRISEGIAIAIQGGPR; Cecropin-P1; UniProt P14661 14-44, looked up)
minimal bacteriocidal concentration [3]: 0.41 µg/mL
minimal bacteriocidal concentration [4]: 0.54 µg/mL
minimal bacteriocidal concentration [5]: > 200 µg/mL
minimal bacteriocidal concentration [6]: 7.5 µg/mL
minimal bacteriocidal concentration [7]: 6.5 µg/mL
minimal bacteriocidal concentration [8]: 0.70 µg/mL
minimal bacteriocidal concentration [9]: > 200 µg/mL
minimal bacteriocidal concentration [10]: > 200 µg/mL
minimal bacteriocidal concentration [11]: 0.51 µg/mL
minimal bacteriocidal concentration [12]: 0.71 µg/mL
minimal bacteriocidal concentration [13]: 0.44 µg/mL
minimal bacteriocidal concentration [14]: > 200 µg/mL
minimal bacteriocidal concentration [15]: 0.72 µg/mL
minimal bacteriocidal concentration [16]: 0.43 µg/mL
minimal bacteriocidal concentration ([1]; L. monocytogenes EGD, X-intercept of radial diffusion assay, pH 6.5): 6.0 µg/mL
minimal bacteriocidal concentration ([2]; E. coli ML-35p, X-intercept of radial diffusion assay, pH 6.5): 0.64 µg/mL
